# Measurements taken from patent US12582632B2, “Inhibition of neurological injuries due to infections via administration of Butanetap and analogs thereof” (priority 2021, dated 2026).
# What was measured:
# [1] = Plasma and brain levels in mice by dose; assay type: in vivo
# From the text: The doses are provided in mg/kg; mg dose for a 70 kg human; plasma levels in mice and humans (ng/ml); plasma levels in humans (nM); brain levels in mice and humans (ng/gram); oral human efficacious and safe dose (mg/day); IP/P human efficacious and safe dose (mg/day); and IV human efficacious and safe dose (mg/day).
# [2] = tested on: Immortalized Mouse Astrocytes—SV40T (IMA2.1); assay: Gingipain cytotoxicity on astrocytes, AlamarBlue viability; assay type: cell-based; conditions: retest at much lower concentrations, 1 nM, FIG. 10
# Method: Immortalized Mouse Astrocytes—SV40T (IMA2.1), immortalized Mouse Microglia (SIM-A9) and immortalized neuroblastoma (SH-SY5Y) cells were infected for 48 hours with gingipains HRgpA and RgpB (arginine gingipains), and Kgp (lysine-specific cysteine proteinase—Lys-gingipain, KGP). After 48 hours the cells were assessed for viability with the AlamarBlue assay and the percentage of dead or alive cells versus control was plotted. […] As expected, since neither are dying, […]. […] Therefore, we expect the efficacious buntanetap dose to fight P. gingivalis infection to be the same as to treat Alzheimer's and Parkinson's disease has no impact on the microglia or neuroblastoma survival in the presence of gingipains.
# FIG. 10 show the results of retesting of the gingipain effect on astroglia at much lower concentrations.
smiles,measurement,setting,value
"CN1CC[C@]2(C)c3cc(OC(=O)Nc4ccccc4)ccc3N(C)C12 (stereo partly drawn) [butanetap, (3aR)-1,3a,8-trimethyl-1,2,3,3a,8,8a-hexahydropyrrolo[2,3-b]indol-5-yl phenylcarbamate]",Brain levels in mice,[1]; dose 0.014 mg/kg,0 ng/gram
same,Brain levels in mice,[1]; dose 0.07 mg/kg,0 ng/gram
same,Brain levels in mice,[1]; dose 0.143 mg/kg,0 ng/gram
same,Brain levels in mice,[1]; dose 0.16 mg/kg,0 ng/gram
same,Brain levels in mice,[1]; dose 0.21 mg/kg,0 ng/gram
same,Brain levels in mice,[1]; dose 0.23 mg/kg,0 ng/gram
same,Brain levels in mice,[1]; dose 0.29 mg/kg,0 ng/gram
same,Brain levels in mice,[1]; dose 0.34 mg/kg,0 ng/gram
same,Brain levels in mice,[1]; dose 0.57 mg/kg,0 ng/gram
same,Brain levels in mice,[1]; dose 1 mg/kg,16 ng/gram
same,Brain levels in mice,[1]; dose 1.14 mg/kg,16.8 ng/gram
same,Brain levels in mice,[1]; dose 1.71 mg/kg,0 ng/gram
same,Brain levels in mice,[1]; dose 2.13 mg/kg,31.2 ng/gram
same,Brain levels in mice,[1]; dose 2.29 mg/kg,0 ng/gram
same,Brain levels in mice,[1]; dose 3 mg/kg,48 ng/gram
same,Brain levels in mice,[1]; dose 5 mg/kg,80 ng/gram
same,Brain levels in mice,[1]; dose 10 mg/kg,160 ng/gram
same,Brain levels in mice,[1]; dose 20 mg/kg,400 ng/gram
same,Brain levels in mice,[1]; dose 30 mg/kg,800 ng/gram
same,Brain levels in mice,[1]; dose 40 mg/kg,1200 ng/gram
same,Brain levels in mice,[1]; dose 50 mg/kg,1680 ng/gram
same,Brain levels in mice,[1]; dose 60 mg/kg,2400 ng/gram
same,Brain levels in mice,[1]; dose 80 mg/kg,4800 ng/gram
same,Brain levels in mice,[1]; dose 100 mg/kg,8000 ng/gram
same,protection of gingipain infected astrocytes,[2],completely protected
same,protection of gingipain infected astrocytes,[2]; listed as buntanetap,protects astrocytes at very low concentrations
